Assay results published in patent US20160243011A1, “Formulations Comprising Idebenone, N-Acetyl-S-Farnesyl-L-Cysteine and Ergothioneine and Uses Thereof” (ELIZABETH ARDEN, INC., priority 2012, published 2016).

What was measured:
Human LDL = experiment: LDL pro-oxidative system measuring primary oxidation by-products; type: biochemical; conditions: 100 μM; for Lipid hydrogen-peroxide % protection: CuSO4 oxidative system, 24 hours; for EPF Score: Example 4
Procedure: Human LDL was oxidized with or without 0.1 mM materials under a CuSO4 oxidative system in Ham's F-10 medium.

TNFα [1] = experiment: UVB induced TNFα release in NHEKs (ELISA); type: cell-based, Human; conditions: for EPF Score: Example 8 (8B), TNFα; for EPF Score / TNFα (% inh): 1 μM; for TNFα (% inh) / inhibition at 1 µM: 6 hours pre-treatment, NHEK, UVB 25 mJ/cm2, 24 hours; for inhibition at 1 µM: Homo sapiens, light or radiation study, read-out: TNFα (% inh)
Procedure: (§1) In order to evaluate the impact of UV-induced inflammation in human skin, primary cell monolayer cultures were exposed to different types of UV radiation, i.e. UVB and UVA. Primary Human Dermal Fibroblasts (HDFs) were irradiated with UVA (350 nm) and Normal Human Epidermal Keratinocytes cells (NHEKs) with UVB (305 nm). HDFs were cultured in Dulbecco's Modified Eagle Medium (DMEM) basal medium (Life Technologies, Grand Island, N.Y.), supplemented with 10% v/v fetal bovine serum (FBS), (referred to as supplemented media) at 37° C. with 5% CO2 NHEKs were cultured in Epilife® basal medium (Life Technologies, Grand Island, N.Y.), supplemented with 60 μM calcium, 0.2% v/v bovine pituitary extract (BPE), 5 μg/ml bovine insulin, 0.18 μg/ml hydrocortisone, 5 μg/ml bovine transferrin, 5 μg/ml, 0.2 ng/ml human epidermal growth factor (referred to as supplemented media) at 37° C. with 5% CO2.
(§2) In order to avoid possible immunomodulating effects of these agents during compound treatments, cells were kept in DMEM or Epilife® basal medium without growth supplements (referred to as depleted media). Cells were plated at a concentration of 3.8×10^4 cells/well in supplemented media in 24-well plates. After cells were allowed to adhere (24 hours), media was changed to depleted media.
(§3) For “blend” testing, a formulation of idebenone, Arazine™ and ergothioneine (1:1:1 molar ratio) was prepared before mixing to medium. Six hours after pre-treatments, to induce a pro-inflammatory response, pre-treatment media was removed and replaced with phosphate-buffered saline (PBS).
(§4) Immediately after UV irradiation, cells were placed in fresh depleted medium for 24 hours. Cell cultures were examined for viability by the reduction of 3-(4,5-dimethylthiazol-2-yl)-5-(3-carboxymethoxyphenyl)-2-(4-sulfophenyl)-2H-tetrazolium (MTS assay; Promega, Madison, Wis.) to determine the percentage of viable cells after compound and UV irradiation. Media supernatants were harvested from non-irradiated and UV irradiated cells and assayed by enzyme-linked immunosorbent assays (ELISA) for the stimulated release of pro-inflammatory mediators. NHEKs were assayed for concentrations of Interleukin-6 (IL-6) and Tumor Necrosis Factor-alpha (TNF-alpha) using appropriate protein standards (BD Biosciences; San Jose, Calif.). HDFs were assayed for concentrations of IL-6 (BD Biosciences) or pro-Matrix Metalloproteinase-1 (pro-MMP-1) using appropriate protein standards (R&D Systems; Minneapolis, Minn.).
(§5) Control groups contained non-irradiated cells. Twenty four hours later, cell medium were assayed for the presence of pro-inflammatory mediators by ELISA.
(§6) To test these anti-oxidants for anti-inflammatory properties, primary Human Epidermal Keratinocytes (NHEKs) were cultured in the presence of each ingredient for 6 hours. Ingredients were then removed and cells were irradiated with 25 mJ/cm2 UVB. Media supernatants were collected after 24 hours and analyzed by ELISA for IL-6 and TNF-α. All ingredients were tested at 1 μM.

pro-MMP-1 = experiment: UVA induced pro-MMP-1 production in HDFs (ELISA); type: cell-based, Human; conditions: for EPF Score: Example 9 (9B), MMP-1; for EPF Score / MMP-1 (% inh): 1 μM; for MMP-1 (% inh) / inhibition at 1 µM: 6 hours pre-treatment, HDF, UVA 12.5 J/cm^2, 24 hours; for inhibition at 1 µM: Homo sapiens, light or radiation study, read-out: MMP-1 (% inh)
Procedure: as §1, §2, §3, §4
(§7) To test these anti-oxidants for anti-inflammatory and anti-aging properties, primary Human Dermal Fibroblasts (HDFs) were cultured in the presence of each ingredient for 6 hours. […] Media supernatants were collected after 24 hours and analyzed by ELISA for IL-6 and pro-MMP-1. All ingredients were tested at 1 μM.

IL-6 [2] = experiment: UVA induced IL-6 production in HDFs (ELISA); type: cell-based, Human; conditions: for EPF Score: Example 9 (9A), IL-6; for EPF Score / IL-6 (% inh): 1 μM; for IL-6 (% inh) / inhibition at 1 µM: 6 hours pre-treatment, HDF, UVA 12.5 J/cm^2, 24 hours; for inhibition at 1 µM: Homo sapiens, light or radiation study, read-out: IL-6 (% inh)
Procedure: as §1, §2, §3, §4, §7

EpiDerm™ inserts = experiment: UVB induced sun burn cell (SBC) formation using EpiDerm; type: cell-based; conditions: for EPF Score: Example 7, 1 mM; for inhibition at 1000 µM: light or radiation study; for inhibition at 1000 µM / SBC % inhibition: 1 mM topical, 6 hours, UVB 200 mJ/cm^2, fixed after 24 hours
Procedure: EpiDerm™ inserts (MatTek®) were topically treated in the presence of each test ingredient for 6 hours, after which they were removed, inserts were irradiated with 200 mJ/cm^2 UVB, and they fixed for H&E staining after 24 hours. The number of sun burn cells (SBCs) (white arrows) was counted. All compounds were tested at 1 mM.

[3] = tested on: Primary Human Epidermal Keratinocytes (NHEKs); experiment: UVB induced DNA damage (thymine dimer formation); type: cell-based; conditions: 1 μM, 6 hours pre-treatment; UVB 200 mJ/cm^2
Procedure: Primary Human Epidermal Keratinocytes (NHEKs) were cultured in the presence of each test ingredient (1 μM) for 6 hours and later removed prior to UVB irradiation (200 mJ/cm^2). Cells were fixed after 1 hour and stained with anti-thymine dimer antibody. Positive rounded stained cells were counted using a fluorescence microscope.

Rat liver microsomes = experiment: Microsome pro-oxidative system measuring secondary oxidation by-products (TBARS); type: biochemical; conditions: 100 μM; for Lipid MDA % protection: NADPH/ADP/Fe^3+ oxidative system, 24 hours; for EPF Score: Example 5
Procedure: Rat liver microsomes were oxidized with or without test ingredients at 0.1 mM using a NADPH/ADP/Fe^3+ oxidative system. Secondary oxidation products were quantified after 24 hours incubation by measuring MDA equivalents directly utilizing the production of Thiobarbituric acid-reactive substances (TBARS). Results are expressed as the change in optical density (OD) at 532 nm to a degree that is proportional to an effective oxidation inhibition based on 1,1,3,3-tetraethoxypropane as MDA-TBA production standard.

IL-6 [4] = experiment: UVB induced IL-6 release in NHEKs (ELISA); type: cell-based, Human; conditions: for EPF Score: Example 8 (8A), IL-6; for EPF Score / IL-6 (% inh): 1 μM; for IL-6 (% inh) / inhibition at 1 µM: 6 hours pre-treatment, NHEK, UVB 25 mJ/cm2, 24 hours; for inhibition at 1 µM: Homo sapiens, light or radiation study, read-out: IL-6 (% inh)
Procedure: as §1, §2, §3, §4, §5, §6

[5] = Total Environmental Protection Factor (EPF) score; conditions: 180 point scoring system (20 points for each endpoint measured)
[6] = Radical scavenging capacity (oxidation of ABTS by metmyoglobin); type: biochemical; conditions: for EPF Score: Example 3, scores: 10^−3 M=5, 10^−4 M=15, 10^−5 M=20; for Effective and oxidant conc: lowest effective concentration, OD 750 nm
Description: This assay analyzed the overall antioxidant capacity of test ingredients for the ability to inhibit the oxidation of 2,2′-azino-bis(3-ethylbenzothiazoline-6-sulphonic acid) (ABTS). to ABTS.^+ by metmyoglobin. The testing involved the suppression of optical density (OD) at 750 nm to a degree that is proportional to an effective oxidation inhibition. The EPF scoring system was based on the lowest effective concentration as previously described by MacDaniel et al., 2005 and scores were assigned as follows: 10^−3 M=5; 10^−4 M=15; 10^−5 M=20.

[7] = tested on: Primary Human Epidermal Keratinocytes (NHEKs); experiment: UVB induced DNA damage (thymine dimer formation); type: cell-based; conditions: Example 6; 1 μM
IL-6 [8] = experiment: UVB induced IL-6 release in NHEKs (ELISA); type: cell-based; conditions: Homo sapiens, light or radiation study; Compound (0.1 μM); NHEK, UVB 25 mJ/cm^2, medium assayed 24 h later; read-out: IL-6 (% inhibited)
TNFα [9] = experiment: UVB induced TNFα release in NHEKs (ELISA); type: cell-based; conditions: Homo sapiens, light or radiation study; Compound (0.1 μM); NHEK, UVB 25 mJ/cm^2, medium assayed 24 h later; read-out: TNFα (% inhibited)

Compound | Lipid hydrogen-peroxide % protection (Human LDL) [%] | EPF Score (Human LDL) | EPF Score (TNFα [1]) | EPF Score (pro-MMP-1) | EPF Score (IL-6 [2]) | EPF Score (EpiDerm™ inserts) | inhibition at 1000 µM (EpiDerm™ inserts) [%] | DNA damage % protection [3] [%] | Lipid MDA % protection (Rat liver microsomes) [%] | EPF Score (Rat liver microsomes) | EPF Score (IL-6 [4]) | Total EPF score (TTL) [5] | EPF Score [6] | Effective and oxidant conc [6] [mM] | inhibition at 1 µM (TNFα [1]) [%] | inhibition at 1 µM (pro-MMP-1) [%] | inhibition at 1 µM (IL-6 [2]) [%] | EPF Score [7] | inhibition at 1 µM (IL-6 [4]) [%] | inhibition at 0.1 µM (IL-6 [8]) [%] | also measured
c1coc(CNc2ncnc3[nH]cnc23)c1 [Kinetin] | 1 | 1 | 10 | 2 | 15 | 18 | 62 | 14 | 0 | 0 | 16 | – | – | – | – | – | – | – | – | – | –
O=C(O)CCCC[C@@H]1CCSS1 (racemic) [Lipoic acid] | 5 | 2 | 14 | 16 | 13 | 8 | – | 13 | 25 | 7 | 14 | 94 | 5 | >3 | – | – | – | – | – | – | TNFα (% inh) (TNFα [1]): 52%; MMP-1 (% inh) (pro-MMP-1): 80%; IL-6 (% inh) (IL-6 [2]): 62%; SBC % inhibition (EpiDerm™ inserts): 27%; IL-6 (% inh) (IL-6 [4]): 46%
O=C1O[C@H]([C@@H](O)CO)C(O)=C1O [Vitamin C, ascorbic acid] | 0 | 1 | 9 | 3 | 17 | 9 | 31 | 16 | 7 | 2 | 4 | 73 | 20 | 0.03 | 36 | 13 | 81 | 6 | 13 | – | –
CC(=O)N[C@@H](CSC/C=C(\C)CC/C=C(\C)CCC=C(C)C)C(=O)O [Arazine ™, N-acetyl-S-farnesyl-L-cysteine] | – | – | – | – | – | – | – | – | – | – | – | – | – | – | – | – | – | – | – | 28 | inhibition at 0.1 µM (TNFα [9]): 33%
tocopherol [Vitamin E] | 56 | 12 | 4 | 16 | 18 | 6 | – | 9 | 45 | 12 | 4 | 95 | 20 | 0.06 | – | – | – | 3 | – | – | TNFα (% inh) (TNFα [1]): 16%; MMP-1 (% inh) (pro-MMP-1): 80%; IL-6 (% inh) (IL-6 [2]): 82%; SBC % inhibition (EpiDerm™ inserts): 21%; IL-6 (% inh) (IL-6 [4]): 12%
COc1cc(/C=C/C(=O)O)ccc1O [Ferulic acid] | 94 | 20 | 14 | 7 | 13 | 18 | 64 | 14 | 63 | 17 | 16 | 130 | 20 | 0.03 | 55 | 37 | 62 | 5 | 54 | – | –
C[N+](C)(C)C(Cc1c[nH]c(=S)[nH]1)C(=O)O (stereo not drawn) [Ergothioneine, 3-(2-sulfanylidene-1,3-dihydroimidazol-4-yl)-2-(trimethylazaniumyl)propanoate] | – | – | – | – | – | – | – | – | – | – | – | – | – | – | – | – | – | – | – | 12 | inhibition at 0.1 µM (TNFα [9]): 35%
COC1=C(OC)C(=O)C(C/C=C(\C)CC/C=C(\C)CC/C=C(\C)CC/C=C(\C)CC/C=C(\C)CC/C=C(\C)CC/C=C(\C)CC/C=C(\C)CC/C=C(\C)CCC=C(C)C)=C(C)C1=O [Ubiquinone] | 14 | 5 | 12 | 5 | 17 | 13 | 46 | 9 | 62 | 17 | 10 | 87 | 5 | >3 | 48 | 26 | 79 | 3 | 34 | – | –
COC1=C(OC)C(=O)C(CCCCCCCCCCO)=C(C)C1=O [Idebenone] | – | – | – | – | – | – | – | – | – | – | – | – | – | – | – | – | – | – | – | 15 | inhibition at 0.1 µM (TNFα [9]): 47%
